Target: T1, ATM protein immunoprecipitated from HeLa cell nuclear extract (Homo sapiens, UniProt Q13315)
T1 construct: ATM protein was immunoprecipitated from HeLa cell nuclear extract; endogenous in cells; host or cells: HeLa cell nuclear extract (immunoprecipitated with rabbit polyclonal anti-ATM antiserum)
Assay: In vitro ATM inhibition assay (phosphorylation of GSTp53N66 on serine 15, chemiluminescent detection); further: tested normally from 100 µM down to 0.1 nM
Type: biochemical
Conditions: read-out: IC50 values (the concentration at which 50% of the enzyme activity is inhibited), ATM inhibition
Experimental: In order to assess the inhibitory action of the compounds against ATM in vitro, the following assay was used to determine IC50 values. ATM protein was immunoprecipitated from HeLa cell nuclear extract using rabbit polyclonal anti-sera raised to the C-terminal ˜500 amino-acid residues of the human ATM protein. […] 10 μl of immunoprecipitated ATM in Buffer C (50 mM Hepes, pH 7.4, 6 mM MgCl2, 150 mM NaCl, 0.1 mM sodium orthovanadate, 4 mM MnCl2, 0.1 mM dithiothreitol, 10% glycerol) was added to 32.5 μl of buffer C containing 1 μg of the ATM substrate GSTp53N66 in a V-bottomed 96 well polypropylene plate. The GSTp53N66 substrate is the amino terminal 66 amino acid residues of human wild type p53 fused to glutathione S-transferase. […] Varying concentrations of inhibitor were then added. […] After 10 minutes of incubation at 37° C., the reactions were initiated by the addition of 5 μl of 500 μM Na-ATP. After 1 hour with shaking at 37° C., 150 μl of phosphate buffered saline (PBS) was added to the reaction and the plate centrifuged at 1500 rpm for 10 minutes. 5 μl of the reaction was then transferred to a 96 well opaque white plate containing 45 μl of PBS to allow the GSTp53N66 substrate to bind to the plate wells. The plate was covered and incubated at room temperature for 1 hour with shaking before discarding the contents. The plate wells were washed twice by the addition of PBS prior to the addition of 3% (w/v) bovine serum albumin (BSA) in PBS. The plate was incubated at room temperature for 1 hour with shaking before discarding the contents and washing twice with PBS. To the wells, 50 μl of a 1:10,000 dilution of primary phosphoserine-15 antibody (Cell Signaling Technology, #9284L) in 3% BSA/PBS was added to detect the phosphorylation event on the serine 15 residue of p53 elicited by the ATM kinase. […] The wells were then washed four times with PBS before the addition of chemiluminescence reagent (NEN Renaissance, NEL105). The plate was then shaken briefly, covered with a transparent plate seal and transferred to a TopCount NXT for chemiluminescent counting. Counts per second, following a one second counting time, were recorded for each reaction.
The enzyme activity for each compound is then calculated using the following equation:
[formula] Results In vitro ATM assays
Compounds were assayed for ATM inhibition activity using the method described above. […] These are determined over a range of different concentrations, normally from 100 μM down to 0.1 nM. Such IC50 values are used as comparative values to identify increased compound potencies.

T1 sequence (Q13315 whole entry): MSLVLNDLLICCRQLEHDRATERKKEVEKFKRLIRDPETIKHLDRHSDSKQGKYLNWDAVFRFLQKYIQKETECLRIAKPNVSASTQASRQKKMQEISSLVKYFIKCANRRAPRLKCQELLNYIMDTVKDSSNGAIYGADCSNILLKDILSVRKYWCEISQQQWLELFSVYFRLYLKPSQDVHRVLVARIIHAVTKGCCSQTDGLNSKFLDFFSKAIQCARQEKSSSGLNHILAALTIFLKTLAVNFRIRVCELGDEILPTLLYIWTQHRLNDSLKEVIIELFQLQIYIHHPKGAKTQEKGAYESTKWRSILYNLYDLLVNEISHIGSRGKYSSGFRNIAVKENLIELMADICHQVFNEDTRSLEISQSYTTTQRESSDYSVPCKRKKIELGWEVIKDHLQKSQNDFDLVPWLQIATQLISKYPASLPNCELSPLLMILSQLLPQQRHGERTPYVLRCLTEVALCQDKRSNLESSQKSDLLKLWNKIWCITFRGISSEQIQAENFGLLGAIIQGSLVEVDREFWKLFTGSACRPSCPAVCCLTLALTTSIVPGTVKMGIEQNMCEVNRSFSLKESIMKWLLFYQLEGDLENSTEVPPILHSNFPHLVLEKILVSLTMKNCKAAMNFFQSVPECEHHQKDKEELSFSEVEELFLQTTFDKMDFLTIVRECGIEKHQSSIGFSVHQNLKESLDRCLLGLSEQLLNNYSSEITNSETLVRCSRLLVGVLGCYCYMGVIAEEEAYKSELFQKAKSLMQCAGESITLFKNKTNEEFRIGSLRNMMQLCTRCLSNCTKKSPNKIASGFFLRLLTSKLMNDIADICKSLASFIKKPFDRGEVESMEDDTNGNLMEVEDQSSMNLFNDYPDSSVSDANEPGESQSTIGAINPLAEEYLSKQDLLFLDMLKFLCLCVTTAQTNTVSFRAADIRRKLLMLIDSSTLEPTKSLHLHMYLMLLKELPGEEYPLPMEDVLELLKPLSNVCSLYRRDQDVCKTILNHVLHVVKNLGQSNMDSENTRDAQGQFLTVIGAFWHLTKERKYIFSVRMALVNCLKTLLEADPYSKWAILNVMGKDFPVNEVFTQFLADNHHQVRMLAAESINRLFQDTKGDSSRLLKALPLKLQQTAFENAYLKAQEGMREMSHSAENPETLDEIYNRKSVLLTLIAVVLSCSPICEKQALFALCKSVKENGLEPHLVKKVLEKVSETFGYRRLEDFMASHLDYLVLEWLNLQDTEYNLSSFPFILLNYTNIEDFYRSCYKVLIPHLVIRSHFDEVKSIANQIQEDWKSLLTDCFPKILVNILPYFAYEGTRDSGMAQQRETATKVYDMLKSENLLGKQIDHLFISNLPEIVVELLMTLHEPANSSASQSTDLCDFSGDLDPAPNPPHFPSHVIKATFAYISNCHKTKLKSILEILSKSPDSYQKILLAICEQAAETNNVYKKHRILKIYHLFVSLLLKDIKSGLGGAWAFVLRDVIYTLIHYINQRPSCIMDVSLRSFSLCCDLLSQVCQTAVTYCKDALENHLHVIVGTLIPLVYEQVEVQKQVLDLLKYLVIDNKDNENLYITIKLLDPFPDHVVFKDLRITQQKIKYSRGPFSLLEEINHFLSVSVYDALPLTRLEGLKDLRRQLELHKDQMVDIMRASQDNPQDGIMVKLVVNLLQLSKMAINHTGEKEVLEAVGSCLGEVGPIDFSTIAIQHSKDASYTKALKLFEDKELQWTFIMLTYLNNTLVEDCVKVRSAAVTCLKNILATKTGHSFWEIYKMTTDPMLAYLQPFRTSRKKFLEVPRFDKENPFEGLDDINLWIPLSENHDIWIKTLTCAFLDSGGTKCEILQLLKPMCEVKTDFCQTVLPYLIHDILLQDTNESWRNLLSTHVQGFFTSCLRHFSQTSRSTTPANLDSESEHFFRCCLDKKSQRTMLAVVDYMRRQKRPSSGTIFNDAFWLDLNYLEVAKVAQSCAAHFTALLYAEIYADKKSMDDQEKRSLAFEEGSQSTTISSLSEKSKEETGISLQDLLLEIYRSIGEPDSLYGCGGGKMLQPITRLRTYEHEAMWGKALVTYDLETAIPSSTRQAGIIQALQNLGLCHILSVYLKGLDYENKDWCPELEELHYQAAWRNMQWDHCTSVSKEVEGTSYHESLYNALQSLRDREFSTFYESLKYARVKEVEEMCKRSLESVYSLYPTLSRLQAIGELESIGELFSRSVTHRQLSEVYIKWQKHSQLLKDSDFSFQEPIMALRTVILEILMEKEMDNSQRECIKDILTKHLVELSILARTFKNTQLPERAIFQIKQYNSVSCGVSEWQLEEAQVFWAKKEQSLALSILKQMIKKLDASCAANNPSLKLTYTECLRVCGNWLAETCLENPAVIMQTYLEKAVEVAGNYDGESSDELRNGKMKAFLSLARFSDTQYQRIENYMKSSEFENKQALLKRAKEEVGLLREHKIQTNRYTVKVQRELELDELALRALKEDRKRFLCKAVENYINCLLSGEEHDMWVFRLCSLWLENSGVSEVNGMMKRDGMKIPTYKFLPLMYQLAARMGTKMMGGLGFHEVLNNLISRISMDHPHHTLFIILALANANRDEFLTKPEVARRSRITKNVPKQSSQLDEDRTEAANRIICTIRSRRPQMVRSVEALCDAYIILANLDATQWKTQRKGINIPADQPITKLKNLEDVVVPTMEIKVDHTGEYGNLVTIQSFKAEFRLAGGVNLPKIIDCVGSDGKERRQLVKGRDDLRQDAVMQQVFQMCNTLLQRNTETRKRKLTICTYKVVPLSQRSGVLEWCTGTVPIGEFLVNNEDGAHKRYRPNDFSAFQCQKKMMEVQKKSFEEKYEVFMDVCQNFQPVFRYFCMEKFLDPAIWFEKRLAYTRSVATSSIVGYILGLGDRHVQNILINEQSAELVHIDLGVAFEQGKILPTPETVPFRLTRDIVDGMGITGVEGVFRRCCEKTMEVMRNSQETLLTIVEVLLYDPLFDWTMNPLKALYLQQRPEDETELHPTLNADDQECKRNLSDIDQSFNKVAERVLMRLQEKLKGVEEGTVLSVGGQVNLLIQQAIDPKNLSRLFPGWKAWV

Row | SMILES | IC50 [nM]
1 | O=C(CN1CCN(CCOCCO)CC1)Nc1ccc2c(c1)Sc1cccc(-c3cc(=O)cc(N4CCOCC4)o3)c1S2 [Compound 79] | < 200
2 | CC(C)N1CCN(CC(=O)Nc2ccc3c(c2)Sc2cccc(-c4cc(=O)cc(N5CCOCC5)o4)c2S3)CC1 [Compound 80] | < 200
3 | O=C(CN1CCN(c2ccccn2)CC1)Nc1ccc2c(c1)Sc1cccc(-c3cc(=O)cc(N4CCOCC4)o3)c1S2 [Compound 82] | < 200
4 | O=C(CN1CCN(c2ncccn2)CC1)Nc1ccc2c(c1)Sc1cccc(-c3cc(=O)cc(N4CCOCC4)o3)c1S2 [Compound 84] | < 200
5 | CC(C)NC(=O)CN1CCN(CC(=O)Nc2ccc3c(c2)Sc2cccc(-c4cc(=O)cc(N5CCOCC5)o4)c2S3)CC1 [Compound 85] | < 200
6 | CN(C)CCN1CCN(CC(=O)Nc2ccc3c(c2)Sc2cccc(-c4cc(=O)cc(N5CCOCC5)o4)c2S3)CC1 [Compound 86] | < 200
7 | CN1CCN(CCC(=O)Nc2ccc3c(c2)Sc2cccc(-c4cc(=O)cc(N5CCOCC5)o4)c2S3)CC1 [Compound 94] | < 200
8 | O=C(CCNCCO)Nc1ccc2c(c1)Sc1cccc(-c3cc(=O)cc(N4CCOCC4)o3)c1S2 [Compound 96] | < 200
9 | CN1CCCN(CCC(=O)Nc2ccc3c(c2)Sc2cccc(-c4cc(=O)cc(N5CCOCC5)o4)c2S3)CC1 [Compound 99] | < 200
10 | COc1ccc(CNCCC(=O)Nc2ccc3c(c2)Sc2cccc(-c4cc(=O)cc(N5CCOCC5)o4)c2S3)cc1 [Compound 103] | < 200
11 | O=C(CCNCC1CCCO1)Nc1ccc2c(c1)Sc1cccc(-c3cc(=O)cc(N4CCOCC4)o3)c1S2 (stereo not drawn) [Compound 107] | < 200
12 | CN(C)CCC(=O)Nc1ccc2c(c1)Sc1cccc(-c3cc(=O)cc(N4CCOCC4)o3)c1S2 [Compound 108] | < 200
13 | C[C@@H]1CN(CCC(=O)Nc2ccc3c(c2)Sc2cccc(-c4cc(=O)cc(N5CCOCC5)o4)c2S3)C[C@H](C)O1 [Compound 109] | < 200
14 | O=C(CCNCc1ccncc1)Nc1ccc2c(c1)Sc1cccc(-c3cc(=O)cc(N4CCOCC4)o3)c1S2 [Compound 110] | < 200
15 | O=C(CCNCCN1CCNC1=O)Nc1ccc2c(c1)Sc1cccc(-c3cc(=O)cc(N4CCOCC4)o3)c1S2 [Compound 113] | < 200
16 | CN1CCCC1CCNCCC(=O)Nc1ccc2c(c1)Sc1cccc(-c3cc(=O)cc(N4CCOCC4)o3)c1S2 (stereo not drawn) [Compound 114] | < 200
17 | CC(=O)N1CCN(CCC(=O)Nc2ccc3c(c2)Sc2cccc(-c4cc(=O)cc(N5CCOCC5)o4)c2S3)CC1 [Compound 116] | < 200
18 | O=C(CCN1CCN(CCOCCO)CC1)Nc1ccc2c(c1)Sc1cccc(-c3cc(=O)cc(N4CCOCC4)o3)c1S2 [Compound 117] | < 200
19 | CC(C)N1CCN(CCC(=O)Nc2ccc3c(c2)Sc2cccc(-c4cc(=O)cc(N5CCOCC5)o4)c2S3)CC1 [Compound 118] | < 200
20 | O=C(CCN1CCN(c2ccccn2)CC1)Nc1ccc2c(c1)Sc1cccc(-c3cc(=O)cc(N4CCOCC4)o3)c1S2 [Compound 120] | < 200
21 | O=C(CCN1CCN(c2ccc(F)cc2)CC1)Nc1ccc2c(c1)Sc1cccc(-c3cc(=O)cc(N4CCOCC4)o3)c1S2 [Compound 121] | < 200
22 | CN(C)CCN1CCN(CCC(=O)Nc2ccc3c(c2)Sc2cccc(-c4cc(=O)cc(N5CCOCC5)o4)c2S3)CC1 [Compound 124] | < 200
23 | O=c1cc(-c2ccc(OCCN3CCCCCC3)c3c2Sc2ccccc2S3)oc(N2CCOCC2)c1 [Compound 148] | < 200
24 | O=c1cc(-c2ccc(OCCNCCN3CCN(Cc4ccccc4)CC3)c3c2Sc2ccccc2S3)oc(N2CCOCC2)c1 [Compound 164] | < 200
25 | CCNCCCOc1ccc(-c2cc(=O)cc(N3CCOCC3)o2)c2c1Sc1ccccc1S2 [Compound 172] | < 200
26 | C[C@@H]1COC[C@H](C)N1CCCOc1ccc(-c2cc(=O)cc(N3CCOCC3)o2)c2c1Sc1ccccc1S2 [Compound 181] | < 200
27 | O=c1cc(-c2ccc(OCCCNC3CCC3)c3c2Sc2ccccc2S3)oc(N2CCOCC2)c1 [Compound 182] | < 200
28 | O=c1cc(-c2cccc3c2Sc2ccccc2N3CCCNCC2CCCO2)oc(N2CCOCC2)c1 (stereo not drawn) [Compound 240] | < 200
29 | CC(C)CNCCCN1c2ccccc2Sc2c(-c3cc(=O)cc(N4CCOCC4)o3)cccc21 [Compound 242] | < 200
30 | CCN(CC)CCCN1c2ccccc2Sc2c(-c3cc(=O)cc(N4CCOCC4)o3)cccc21 [Compound 244] | < 200

Continued, values first:

Row | IC50 [nM] | SMILES
31 | < 200 | COCCN1CCN(CC(=O)Nc2ccc3c(c2)Sc2cccc(-c4cc(=O)cc(N5CCOCC5)o4)c2S3)CC1 [Compound 78]
32 | < 200 | CCN1CCN(CC(=O)Nc2ccc3c(c2)Sc2cccc(-c4cc(=O)cc(N5CCOCC5)o4)c2S3)CC1 [Compound 81]
33 | < 200 | O=C(CN1CCN(c2ccc(F)cc2)CC1)Nc1ccc2c(c1)Sc1cccc(-c3cc(=O)cc(N4CCOCC4)o3)c1S2 [Compound 83]
34 | < 200 | CCN1CCCC1CNCC(=O)Nc1ccc2c(c1)Sc1cccc(-c3cc(=O)cc(N4CCOCC4)o3)c1S2 (stereo not drawn) [Compound 87]
35 | < 200 | O=C(CNCCN1CCCCC1)Nc1ccc2c(c1)Sc1cccc(-c3cc(=O)cc(N4CCOCC4)o3)c1S2 [Compound 88]
36 | < 200 | O=C(CCN1CCOCC1)Nc1ccc2c(c1)Sc1cccc(-c3cc(=O)cc(N4CCOCC4)o3)c1S2 [Compound 91]
37 | < 200 | O=C(CCN1CCCCC1)Nc1ccc2c(c1)Sc1cccc(-c3cc(=O)cc(N4CCOCC4)o3)c1S2 [Compound 92]
38 | < 200 | NCCNCCC(=O)Nc1ccc2c(c1)Sc1cccc(-c3cc(=O)cc(N4CCOCC4)o3)c1S2 [Compound 97]
39 | < 200 | O=C(CCN1CCCC1)Nc1ccc2c(c1)Sc1cccc(-c3cc(=O)cc(N4CCOCC4)o3)c1S2 [Compound 98]
40 | < 200 | O=C(CCN1CCCNCC1)Nc1ccc2c(c1)Sc1cccc(-c3cc(=O)cc(N4CCOCC4)o3)c1S2 [Compound 100]
41 | < 200 | O=C(CCN1CCCCCC1)Nc1ccc2c(c1)Sc1cccc(-c3cc(=O)cc(N4CCOCC4)o3)c1S2 [Compound 101]
42 | < 200 | O=C(CCNCCCN1CCOCC1)Nc1ccc2c(c1)Sc1cccc(-c3cc(=O)cc(N4CCOCC4)o3)c1S2 [Compound 102]
43 | < 200 | O=C(CCSc1ncn[nH]1)Nc1ccc2c(c1)Sc1cccc(-c3cc(=O)cc(N4CCOCC4)o3)c1S2 [Compound 104]
44 | < 200 | CCN(CC)CCC(=O)Nc1ccc2c(c1)Sc1cccc(-c3cc(=O)cc(N4CCOCC4)o3)c1S2 [Compound 105]
45 | < 200 | CCN(CCC(=O)Nc1ccc2c(c1)Sc1cccc(-c3cc(=O)cc(N4CCOCC4)o3)c1S2)Cc1ccccc1 [Compound 111]
46 | < 200 | CN(C)CCN(C)CCC(=O)Nc1ccc2c(c1)Sc1cccc(-c3cc(=O)cc(N4CCOCC4)o3)c1S2 [Compound 112]
47 | < 200 | CCN1CCN(CCC(=O)Nc2ccc3c(c2)Sc2cccc(-c4cc(=O)cc(N5CCOCC5)o4)c2S3)CC1 [Compound 119]
48 | < 200 | CC(C)NC(=O)CN1CCN(CCC(=O)Nc2ccc3c(c2)Sc2cccc(-c4cc(=O)cc(N5CCOCC5)o4)c2S3)CC1 [Compound 123]
49 | < 200 | NC(=O)CNCCC(=O)Nc1ccc2c(c1)Sc1cccc(-c3cc(=O)cc(N4CCOCC4)o3)c1S2 [Compound 125]
50 | < 200 | CCN1CCCC1CNCCC(=O)Nc1ccc2c(c1)Sc1cccc(-c3cc(=O)cc(N4CCOCC4)o3)c1S2 (stereo not drawn) [Compound 126]
51 | < 200 | O=C(CCNCCN1CCCCC1)Nc1ccc2c(c1)Sc1cccc(-c3cc(=O)cc(N4CCOCC4)o3)c1S2 [Compound 127]
52 | < 200 | O=C(CCN1CCN(CCO)CC1)Nc1ccc2c(c1)Sc1cccc(-c3cc(=O)cc(N4CCOCC4)o3)c1S2 [Compound 128]
53 | < 200 | O=C(CCN1CCCN(CCO)CC1)Nc1ccc2c(c1)Sc1cccc(-c3cc(=O)cc(N4CCOCC4)o3)c1S2 [Compound 129]
54 | < 200 | O=c1cc(-c2ccc(OCCNN3CCOCC3)c3c2Sc2ccccc2S3)oc(N2CCOCC2)c1 [Compound 153]
55 | < 200 | CN(C)Cc1ccc(CSCCNCCOc2ccc(-c3cc(=O)cc(N4CCOCC4)o3)c3c2Sc2ccccc2S3)o1 [Compound 170]
56 | < 200 | CC(C)N(CCNCCCOc1ccc(-c2cc(=O)cc(N3CCOCC3)o2)c2c1Sc1ccccc1S2)C(C)C [Compound 200]
57 | < 200 | CCCCNCCCN1c2ccccc2Sc2c(-c3cc(=O)cc(N4CCOCC4)o3)cccc21 [Compound 245]

From US7429660B2, “ATM inhibitors” (Kudos Pharmaceuticals Limited, priority 2003, dated 2008)
